Data on 13 molecules can be found in patent US10273226B2, “Pyrazolyl-heteroarylamides as pesticides” (Bayer Animal Health GmbH, priority 2014, dated 2019).

Molecules are shown by their SMILES.

Common to all, as to assay type: in vivo
Assay [1] deals with Boophilus microplus. The assay is described as follows: Boophilus microplus injection test. As to conditions: application rate 20 μg/animal; injection into abdomen; assessed after 7 days. In short, it runs like this: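 Steps: dilute compound in DMSO to the desired concentration; inject 1 μl abdominally into 5 engorged adult females; keep in climate-controlled dishes; at 7 days score fertile egg laying, incubating doubtful eggs until hatch at about 42 days.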

The test system of assay [2] is Lucilia cuprina. The experiment in a line: Lucilia cuprina test. As to conditions: application rate 100 ppm; L1 larvae; after 2 days. An outline of the steps:
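About 20 L1 larvae placed in vessels with minced horsemeat treated with compound (DMSO concentrate diluted in water) at the desired concentration. Kill (%) scored after 2 days; 100% means all larvae dead, 0% none.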

Assay [3] concerns Rhipicephalus sanguineus. The experiment in a line: Rhipicephalus sanguineus in vitro contact test with adult brown dog ticks. The note with it: after 48 h, ticks dead or moribund. An outline of the steps:
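Test tubes (25 ml) were coated by dissolving active ingredient in acetone p.a., diluting to the required concentration, and spreading 250 μl over the inner walls and base on an orbital shaker at 30 rpm for 2 h. Once dry, 5-10 adult Rhipicephalus sanguineus were added, and tubes were capped with perforated lids and kept horizontal in darkness at room temperature. At 48 h, ticks were knocked down and heated at 45-50° C. for up to 5 min. Those unable to climb away were counted dead or moribund, and efficacy ran from 0% to 100%.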

Assay [4] concerns Tetranychus urticae. The assay is described as follows: Tetranychus urticae spray test, OP-resistant. The note with it: after 6 days. Here is the method:
Tetranychus urticae—Spray Test, OP-Resistant
To produce an appropriate active ingredient formulation, 1 part by weight of active ingredient is dissolved using the specified parts by weight of solvent and made up with water containing an emulsifier concentration of 1000 ppm until the desired concentration is attained. To produce further test concentrations, the preparation is diluted with emulsifier-containing water.
Discs of bean leaves (Phaseolus vulgaris) infested by all stages of the greenhouse red spider mite (Tetranychus urticae) are sprayed with an active ingredient formulation of the desired concentration.
After 6 days, efficacy in % is determined. 100% means that all the spider mites have been killed; 0% means that none of the spider mites have been killed.

Assay [5] has as its system Ctenocephalides felis. The experiment in a line: Ctenocephalides felis oral test. The note with it: application rate 100 ppm in citrated cattle blood; after 2 days. An outline of the steps: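 Oral exposure of unfed adult fleas, roughly 20 per chamber, to compound-spiked citrated cattle blood taken up across a parafilm membrane. Read-out is percent kill at 2 days, where 100% means every flea dead.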

The subject of assay [6] is Spodoptera frugiperda. The experiment in a line: Spodoptera frugiperda spray test. The note with it: application rate 100 g/ha; caterpillars; after 7 days. In short, it runs like this: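 Maize leaf discs were sprayed with compound formulated in solvent plus water containing 1000 ppm emulsifier, dried, then infested with Spodoptera frugiperda caterpillars. Efficacy in % mortality was scored after 7 days (100% all killed, 0% none).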

The subject of assay [7] is Phaedon cochleariae. The experiment in a line: Phaedon cochleariae spray test. The note with it: application rate 100 g/ha; larvae; after 7 days. An outline of the steps: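 Chinese cabbage leaf discs were sprayed with the compound formulated in water containing 1000 ppm emulsifier. After drying, they were infested with mustard beetle larvae. Efficacy was scored as % larvae killed after 7 days (100% = all dead, 0% = none).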

Assay [8] concerns Musca domestica. The experiment in a line: Musca domestica test. The note with it: application rate 100 ppm; adult houseflies; after 2 days. On the procedure:
Solvent: dimethyl sulphoxide
To produce an appropriate active ingredient formulation, 10 mg of active ingredient are mixed with 0.5 ml of dimethyl sulphoxide, and the concentrate is diluted with water to the desired concentration.
Vessels containing a sponge treated with sugar solution and the active ingredient formulation of the desired concentration are populated with 10 adult houseflies (Musca domestica).
After 2 days, the kill in % is determined. 100% means that all of the flies have been killed; 0% means that none of the flies have been killed.

Assay [9] relates to Ctenocephalides felis. The experiment in a line: Ctenocephalides felis in vitro contact test with adult cat fleas. As to conditions: application rate 5 μg/cm^2 (500 g/ha); after 48 h; fleas dead or moribund. Here is the method: Ctenocephalides felis—In Vitro Contact Tests with Adult Cat Fleas
For the coating of the test tubes, 9 mg of active ingredient are first dissolved in 1 ml of acetone p.a. and then diluted to the desired concentration with acetone p.a. 250 μl of the solution are distributed homogeneously on the inner walls and base of a 25 ml test tube by turning and rocking on an orbital shaker (rocking rotation at 30 rpm for 2 h). With 900 ppm active ingredient solution and internal surface 44.7 cm^2, given homogeneous distribution, an area-based dose of 5 μg/cm^2 is achieved.
After the solvent has evaporated off, the tubes are populated with 5-10 adult cat fleas (Ctenocephalides felis), sealed with a perforated plastic lid and incubated in a horizontal position at room temperature and ambient humidity. After 48 h, efficacy is determined. To this end, the test tubes are stood upright and the fleas are knocked to the base of the tube. Fleas which remain motionless at the base or move in an uncoordinated manner are considered to be dead or moribund.
100% efficacy means that all the fleas were dead or moribund. 0% efficacy means that no fleas were harmed.

Setting [10] is: application rate 5 μg/cm^2 (500 g/ha).

With `Cc1ncc(-c2cnn(-c3c(C(F)(F)F)c(C(F)(F)C(F)(F)F)nn3C)c2)cc1NC(=O)c1ccc(F)cc1` [Example 2-003], the “efficacy (laying of fertile eggs)” value in assay [1] was 100%. Besides, the “efficacy (kill in %)” value in assay [2], in [5] and in assay [8] was 100% throughout. Besides, the efficacy in assay [3] (setting [10]), in assay [4] (application rate 100 g/ha), in assay [6] and in assay [7] was 100% throughout.

For the molecule `Cn1nc(C(F)(F)C(F)(F)F)c(C(F)(F)F)c1-n1cc(-c2cnc(F)c(NC(=O)c3ccncc3)c2)cn1` [Example 2-005], the “efficacy (laying of fertile eggs)” value in [1] turned out to be 100%. The efficacy in assay [9] is given as 100%; in [3] (application rate 1 μg/cm^2 (100 g/ha)), 80%; in [4] (application rate 20 g/ha), 100%; in assay [6] it was 100%; in assay [7] it was 100%. The results for the “efficacy (kill in %)” value in [2], in [5] and in assay [8] were 100%, 100% and 90%, respectively.

As for `Cn1nc(C(F)(F)C(F)(F)F)c(C(F)(F)F)c1-n1cc(-c2cccc(NC(=O)c3cccnc3Cl)c2)cn1` [Example 1-028], the “efficacy (laying of fertile eggs)” value in assay [1] stood at 100%. Further, the efficacy in assay [9], in assay [3] (setting [10]), in [4] (application rate 100 g/ha), in assay [6] and in assay [7] was 100% in each case. For the same molecule, the “efficacy (kill in %)” value in assay [2], in assay [5] and in assay [8] was 100% throughout.

For the molecule `Cn1nc(C(F)(F)C(F)(F)F)c(C(F)(F)F)c1-n1cc(-c2cccc(NC(=O)c3cccc(F)c3)c2)cn1` [Example 1-013], the “efficacy (laying of fertile eggs)” value in assay [1] is listed as 100%. The efficacy in assay [9], in assay [3] (setting [10]), in assay [4] (application rate 100 g/ha), in assay [6] and in assay [7] was 100% each time. Moreover, the “efficacy (kill in %)” value in assay [2] was 100%; in [5], 100%; in [8] it was 90%.

Take `Cn1nc(C(F)(F)C(F)(F)F)c(C(F)(F)F)c1-n1cc(-c2cccc(NC(=O)CC(F)(F)F)c2)cn1` [Example 1-007]: the “efficacy (laying of fertile eggs)” value in [1] is 100%. For the same molecule, the “efficacy (kill in %)” value in assay [2], in assay [5] and in [8] was 100% in each case. For the same molecule, the efficacy in [3] (setting [10]) is listed as 100%; in assay [4] (application rate 100 g/ha) it was 90%; in [6], 100%; in [7] it was 100%.

For `COC1CCC(C(=O)Nc2cc(-c3cnn(-c4c(C(F)(F)F)c(C(F)(F)C(F)(F)F)nn4C)c3)ccc2F)CC1` (mixture of isomers) [Example 1-047], the “efficacy (laying of fertile eggs)” value in assay [1] is reported as 100%. The “efficacy (kill in %)” value in assay [2] stood at 100%; in [5], 100%; in assay [8], 80%. The efficacy in assay [4] (application rate 100 g/ha) and in assay [7] was 100% in each case.

As to `Cn1nc(C(F)(F)C(F)(F)F)c(C(F)(F)F)c1-n1cc(-c2ccc(F)c(NC(=O)C3(C)CC3)c2)cn1` [Example 1-058], the “efficacy (laying of fertile eggs)” value in assay [1] turned out to be 100%. Also, the efficacy is on record as 100% in assay [9], 100% in assay [3] (setting [10]), 100% in assay [4] (application rate 100 g/ha) and 83% in assay [6]. Moreover, the “efficacy (kill in %)” value stood at 100% in assay [2], 100% in assay [5] and 80% in assay [8].

Consider `Cn1nc(C(F)(F)C(F)(F)F)c(C(F)(F)F)c1-n1cc(-c2ccc(F)c(NC(=O)c3ccc4c(c3)OC(F)(F)O4)c2)cn1` [Example 1-084], for which the “efficacy (laying of fertile eggs)” value in assay [1] is recorded as 100%. Also, the “efficacy (kill in %)” value in [2], in assay [5] and in [8] was 100% throughout. Moreover, the efficacy was 80% in [3] (setting [10]), 100% in assay [6] and 100% in [7].

On to `Cn1nc(C(F)(F)C(F)(F)F)c(C(F)(F)F)c1-n1cc(-c2ccc(F)c(NC(=O)C3CC3)c2)cn1` [Example 1-055], for which the “efficacy (laying of fertile eggs)” value in assay [1] was 100%. Besides, the “efficacy (kill in %)” value in assay [2], in assay [5] and in assay [8] was 100% each time. For the same molecule, the efficacy is 80% in [3] (setting [10]), 90% in assay [4] (application rate 100 g/ha), 100% in [6] and 100% in assay [7].

For the molecule `Cn1cc(C(=O)Nc2cc(-c3cnn(-c4c(C(F)(F)F)c(C(F)(F)C(F)(F)F)nn4C)c3)ccc2F)cn1` [Example 1-035], the “efficacy (laying of fertile eggs)” value in assay [1] was 100%. Further, the “efficacy (kill in %)” value in assay [2], in assay [5] and in assay [8] was 100% in each case. In addition, the efficacy in [3] (setting [10]) was found to be 80%; in [4] (application rate 100 g/ha) it was 100%; in assay [6], 100%; in assay [7], 100%.

Turning to `Cn1nc(C(F)(F)C(F)(F)F)c(C(F)(F)F)c1-n1cc(-c2ccc(F)c(NC(=O)c3ccccc3F)c2)cn1` [Example 1-071], in assay [1], the “efficacy (laying of fertile eggs)” value was found to be 100%. For the same molecule, the results for the “efficacy (kill in %)” value in assay [2], in assay [5] and in assay [8] were 100%, 90% and 80%, respectively. The efficacy in [4] (application rate 100 g/ha), in assay [6] and in assay [7] was 100% throughout.

As to `Cc1ncc(-c2cnn(-c3c(C(F)(F)F)c(C(F)(F)C(F)(F)F)nn3C)c2)cc1NC(=O)c1ccncc1` [Example 2-004], the “efficacy (laying of fertile eggs)” value in assay [1] is on record as 100%. In addition, the “efficacy (kill in %)” value in [2] came out at 100%; in assay [5] it was 100%; in assay [8] it was 80%. Also, the efficacy in [4] (application rate 100 g/ha), in assay [6] and in assay [7] was 100% in each case.

For `CN(C)C(=O)C(=O)Nc1cc(-c2cnn(-c3c(C(F)(F)F)c(C(F)(F)C(F)(F)F)nn3C)c2)ccc1F` [Example 1-127], in [1], the “efficacy (laying of fertile eggs)” value amounted to 100%. Also, the efficacy in assay [9], in [3] (setting [10]), in assay [6] and in [7] was 100% in each case. Moreover, the “efficacy (kill in %)” value in [2], in assay [5] and in assay [8] was 100% each time.
